Source: patent US20090270478A1, “ION CHANNEL MODULATING ACTIVITY II” (CARDIOME PHARMA CORP., priority 2000, published 2009)

Tests used:
hH1 sodium channel = target: T1, hH1 sodium channel (Homo sapiens, UniProt Q14524); assay: Inactivated state inhibition of hH1 sodium channel current (prepulse protocol); type: cell-based
T1 construct: expressed in transfected cells

[1] = tested on: isolated rabbit Purkinje fibers; conditions: 100 μM lidocaine, 300 nM dofetilide
[2] = target: human heart sodium channel (hH1) (Homo sapiens, UniProt Q14524); type: cell-based
Sequence of human heart sodium channel (hH1) (Q14524 whole entry, looked up): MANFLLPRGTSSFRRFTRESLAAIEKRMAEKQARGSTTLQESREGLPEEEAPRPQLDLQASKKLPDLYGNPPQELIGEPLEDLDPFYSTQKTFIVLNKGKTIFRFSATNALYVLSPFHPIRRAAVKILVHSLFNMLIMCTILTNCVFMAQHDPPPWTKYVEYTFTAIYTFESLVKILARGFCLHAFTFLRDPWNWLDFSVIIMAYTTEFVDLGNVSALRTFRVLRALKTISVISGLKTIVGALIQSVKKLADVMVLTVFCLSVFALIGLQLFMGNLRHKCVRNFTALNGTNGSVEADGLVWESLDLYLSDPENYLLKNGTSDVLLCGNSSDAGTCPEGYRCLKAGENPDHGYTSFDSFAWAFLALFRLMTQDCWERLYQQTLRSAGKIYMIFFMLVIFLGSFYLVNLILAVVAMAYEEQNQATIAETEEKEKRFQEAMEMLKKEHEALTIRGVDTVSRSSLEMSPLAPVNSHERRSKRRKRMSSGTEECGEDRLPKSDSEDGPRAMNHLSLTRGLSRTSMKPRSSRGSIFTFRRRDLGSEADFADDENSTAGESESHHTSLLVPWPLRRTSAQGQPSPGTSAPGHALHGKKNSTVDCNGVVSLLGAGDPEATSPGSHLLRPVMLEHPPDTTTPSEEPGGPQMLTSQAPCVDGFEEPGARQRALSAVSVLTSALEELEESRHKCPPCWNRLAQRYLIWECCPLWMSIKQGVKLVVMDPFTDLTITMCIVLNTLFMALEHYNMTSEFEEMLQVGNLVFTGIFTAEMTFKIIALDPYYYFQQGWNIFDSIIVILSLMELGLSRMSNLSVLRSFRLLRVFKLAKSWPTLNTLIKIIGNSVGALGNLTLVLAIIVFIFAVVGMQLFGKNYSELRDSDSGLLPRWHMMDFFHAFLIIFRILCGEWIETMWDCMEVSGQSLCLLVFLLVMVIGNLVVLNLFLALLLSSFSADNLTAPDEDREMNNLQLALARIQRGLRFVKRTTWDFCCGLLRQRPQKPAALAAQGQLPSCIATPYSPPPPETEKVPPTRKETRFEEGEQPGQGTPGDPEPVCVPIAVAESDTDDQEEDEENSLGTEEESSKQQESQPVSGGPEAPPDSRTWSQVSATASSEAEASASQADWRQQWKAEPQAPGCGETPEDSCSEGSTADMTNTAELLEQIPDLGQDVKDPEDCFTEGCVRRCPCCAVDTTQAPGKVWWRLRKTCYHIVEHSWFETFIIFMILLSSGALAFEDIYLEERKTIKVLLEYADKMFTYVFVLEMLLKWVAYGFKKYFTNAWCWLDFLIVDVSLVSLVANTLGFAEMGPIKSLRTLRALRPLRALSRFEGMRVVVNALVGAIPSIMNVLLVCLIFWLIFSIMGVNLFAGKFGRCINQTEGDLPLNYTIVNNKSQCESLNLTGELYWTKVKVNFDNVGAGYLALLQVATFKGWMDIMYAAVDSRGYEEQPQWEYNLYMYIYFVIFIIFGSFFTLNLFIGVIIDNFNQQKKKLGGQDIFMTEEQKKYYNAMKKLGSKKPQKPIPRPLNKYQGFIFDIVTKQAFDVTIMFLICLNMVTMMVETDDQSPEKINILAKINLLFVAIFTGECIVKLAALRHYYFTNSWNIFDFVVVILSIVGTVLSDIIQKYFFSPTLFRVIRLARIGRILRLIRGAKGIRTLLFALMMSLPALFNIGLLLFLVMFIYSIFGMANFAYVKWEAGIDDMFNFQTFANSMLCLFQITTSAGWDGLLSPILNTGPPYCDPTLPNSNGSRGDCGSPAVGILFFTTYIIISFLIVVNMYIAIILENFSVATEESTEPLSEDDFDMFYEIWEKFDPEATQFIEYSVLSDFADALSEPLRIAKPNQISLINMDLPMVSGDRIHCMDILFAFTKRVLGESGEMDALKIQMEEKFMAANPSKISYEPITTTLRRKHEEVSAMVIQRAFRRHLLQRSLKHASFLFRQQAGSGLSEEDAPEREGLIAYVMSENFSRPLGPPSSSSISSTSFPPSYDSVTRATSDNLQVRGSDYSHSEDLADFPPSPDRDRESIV

T1 sequence (Q14524 whole entry): as the sequence (Q14524 whole entry, looked up) above

CCN(CC)CC(=O)Nc1c(C)cccc1C [lidocaine]
inhibition of hH1 with longer prepulses (inactivated state inhibition) (hH1 sodium channel): produced enhanced inhibition when prepulses of longer duration were applied | termination of dofetilide-induced EADs [1]: terminated dofetilide-induced (300 nM) EADs | block of early TTX-sensitive sodium current, Iearly(TTX) [2]: 41±2.7% | block of late TTX-sensitive sodium current, Ilate(TTX) [2]: 73±2.8% | block of sustained TTX-sensitive sodium current, Isus(TTX) [2]: 70±2.5%
